The source of these data is US8410117B2, “Imidazopyrimidine derivatives” (Hoffmann-La Roche Inc., priority 2010, dated 2013).

Structures are written as SMILES.

The target in this assay is T1, human PDE10A (Homo sapiens, UniProt Q9Y233).
T1 construct: The human PDE10A full length assay; purchased Enzo Life Science, Lausen, Switzerland SE-534
T1 sequence (Q9Y233 1-779 isoform Q9Y233-1): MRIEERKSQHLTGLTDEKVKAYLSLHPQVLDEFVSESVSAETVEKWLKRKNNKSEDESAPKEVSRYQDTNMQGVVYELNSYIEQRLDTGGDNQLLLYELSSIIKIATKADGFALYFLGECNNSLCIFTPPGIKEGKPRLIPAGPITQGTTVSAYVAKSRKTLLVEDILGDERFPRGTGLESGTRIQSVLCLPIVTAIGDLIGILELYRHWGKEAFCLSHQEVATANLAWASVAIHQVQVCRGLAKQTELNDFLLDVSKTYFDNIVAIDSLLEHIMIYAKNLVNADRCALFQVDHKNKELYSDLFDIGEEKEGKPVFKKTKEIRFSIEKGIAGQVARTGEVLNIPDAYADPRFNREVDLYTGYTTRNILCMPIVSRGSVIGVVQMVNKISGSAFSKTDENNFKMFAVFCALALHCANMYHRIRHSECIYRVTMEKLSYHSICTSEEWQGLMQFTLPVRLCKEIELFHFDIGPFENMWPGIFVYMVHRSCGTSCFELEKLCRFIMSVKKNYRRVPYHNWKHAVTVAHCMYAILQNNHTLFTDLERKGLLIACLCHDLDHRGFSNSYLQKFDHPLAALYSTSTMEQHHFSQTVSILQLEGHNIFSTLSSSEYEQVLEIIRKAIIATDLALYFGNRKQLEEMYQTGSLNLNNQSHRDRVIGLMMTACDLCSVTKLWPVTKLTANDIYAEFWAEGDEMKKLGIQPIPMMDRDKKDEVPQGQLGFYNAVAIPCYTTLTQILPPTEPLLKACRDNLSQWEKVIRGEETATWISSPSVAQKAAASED
Put plainly: human PDE10A full length Scintillation Proximity Assay (SPA). Conditions: 50 nM cGMP and 50 nM [3H]-cGMP, 20 minutes at room temperature; read-out: PDE10A inhibition IC50. Type of assay: biochemical. In short, it runs like this: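 Full-length enzyme at 3.75 ng/well in 20 mM HEPES pH 7.5, 10 mM MgCl2, 0.05 mg/ml BSA, with 50 nM cGMP plus 50 nM [3H]-cGMP substrate, 20 min at room temperature. Stopped with YSi-SPA beads in zinc sulphate and counted by scintillation. IC50 from inhibitor concentration series; no-enzyme wells define background.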
Regarding `Cc1nc(CNC(=O)c2cnn(C)c2C(=O)Nc2ccn3cc(-c4ccccc4)nc3n2)cs1` [Example 163, 1-methyl-N4-((2-methylthiazol-4-yl)methyl)-N5-(2-phenylimidazo[1,2-a]pyrimidin-7-yl)-1H-pyrazole-4,5-dicarboxamide], the IC50 (usually the concentration needed to halve the response being measured) came out at 636 nM.

Take `CCCNC(=O)c1cnn(C)c1C(=O)Nc1ccn2cc(-c3ccccc3)nc2n1` [Example 57, 2-Methyl-2H-pyrazole-3,4-dicarboxylic acid 3-[(2-phenyl-imidazo[1,2-a]pyrimidin-7-yl)-amide]-4-propylamide]: the IC50 was 23 nM.

Consider `Cn1ncc(C(=O)N2CC(F)C2)c1C(=O)Nc1ccn2cc(-c3cccc(OCCF)c3)nc2n1` [Example 90, 4-(3-Fluoro-azetidine-1-carbonyl)-2-methyl-2H-pyrazole-3-carboxylic acid {2-[3-(2-fluoro-ethoxy)-phenyl]imidazo[1,2-a]pyrimidin-7-yl}-amide], for which the IC50 came to 6.1 nM.

Regarding `CN(C)C(=O)c1cnn(C)c1C(=O)Nc1ccn2cc(-c3cccc(F)c3)nc2n1` [Example 94, 2-Methyl-2H-pyrazole-3,4-dicarboxylic acid 4-dimethylamide 3-{[2-(3-fluoro-phenyl)-imidazo[1,2-a]pyrimidin-7-yl]amide}], the IC50 turned out to be 11.2 nM.

On to `O=C(Nc1ccn2cc(-c3ccccc3)nc2n1)c1noc2c1CCCC2` [Example 18, 4,5,6,7-Tetrahydro-benzo[d] isoxazole-3-carboxylic acid (2-phenyl-imidazo[1,2-a]pyrimidin-7-yl)-amide], for which the IC50 worked out at 147 nM.

Turning to `Cn1ncc(-c2ccno2)c1C(=O)Nc1ccn2cc(-c3ccccc3)nc2n1` [Example 20, 4-Isoxazol-5-yl-2-methyl-2H-pyrazole-3-carboxylic acid (2-phenyl-imidazo[1,2-a]pyrimidin-7-yl)-amide], the IC50 came to 643 nM.

As to `COc1cccc(-c2cn3ccc(NC(=O)c4c(C(=O)N5CC(F)C5)cnn4C)nc3n2)c1` [Example 98, 4-(3-Fluoro-azetidine-1-carbonyl)-2-methyl-2H-pyrazole-3-carboxylic acid [2-(3-methoxy-phenyl)-imidazo[1,2-a]pyrimidin-7-yl]-amide], the IC50 worked out at 14.7 nM.

As for `Cc1nn(C)c(C(=O)Nc2ccn3cc(-c4ccccc4)nc3n2)c1Cl` [Example 3, 4-Chloro-2,5-dimethyl-2H-pyrazole-3-carboxylic acid (2-phenyl-imidazo[1,2-a]pyrimidin-7-yl)-amide], the IC50 was 97 nM.

Turning to `O=C(NCC(F)(F)F)c1nccnc1C(=O)Nc1ccn2cc(-c3ccccc3)nc2n1` [Example 43, Pyrazine-2,3-dicarboxylic acid 2-[(2-phenyl-imidazo[1,2-a]pyrimidin-7-yl)-amide]3-[(2,2,2-trifluoro-ethyl)-amide]], the IC50 stood at 900 nM.

`COc1cccc(-c2cn3ccc(NC(=O)c4c(C(=O)N(C)CCF)cnn4C)nc3n2)c1` [Example 111, 2-Methyl-2H-pyrazole-3,4-dicarboxylic acid 4-[(2-fluoro-ethyl)-methyl-amide]3-{[2-(3-methoxy-phenyl)-imidazo[1,2-a]pyrimidin-7-yl]amide}]: the IC50 was 364 nM.

`CC1CCCN1C(=O)c1cnn(C)c1C(=O)Nc1ccn2cc(-c3ccccc3)nc2n1` (centres unmarked) [Example 116, 1-methyl-4-(2-methylpyrrolidine-1-carbonyl)-N-(2-phenylimidazo[1,2-a]pyrimidin-7-yl)-1H-pyrazole-5-carboxamide]: the IC50 was 5.1 nM.

With `COCCNC(=O)c1cnn(C)c1C(=O)Nc1ccn2cc(-c3ccccc3)nc2n1` [Example 46, 2-Methyl-2H-pyrazole-3,4-dicarboxylic acid 4-[(2-methoxy-ethyl)-amide]3-[(2-phenyl-imidazo[1,2-a]pyrimidin-7-yl)-amide]], the IC50 turned out to be 785 nM.

Consider `CCN(C)C(=O)c1cnn(C)c1C(=O)Nc1ccn2cc(-c3ccccc3)nc2n1` [Example 49, 2-Methyl-2H-pyrazole-3,4-dicarboxylic acid 4-(ethyl-methyl-amide) 3-[(2-phenyl-imidazo[1,2-a]pyrimidin-7-yl)-amide]], for which the 50% inhibitory concentration (IC50) came out at 1.9 nM.

As to `Cn1ncc(C(=O)NCc2nc(C#N)cs2)c1C(=O)Nc1ccn2cc(-c3ccccc3)nc2n1` [Example 151, N4-((4-cyanothiazol-2-yl)methyl)-1-methyl-N5-(2-phenylimidazo[1,2-a]pyrimidin-7-yl)-1H-pyrazole-4,5-dicarboxamide], the IC50 was 288 nM.

As to `O=C(Nc1ccn2cc(-c3ccccc3)nc2n1)c1nn[nH]c1C(=O)NC1CC1` [Example 159, N5-cyclopropyl-N4-(2-phenylimidazo[1,2-a]pyrimidin-7-yl)-1H-1,2,3-triazole-4,5-dicarboxamide], the IC50 is 451 nM.

As to `Cn1ncc(C(=O)N2CCC2)c1C(=O)Nc1ccn2cc(-c3cccc(Cl)c3)nc2n1` [Example 63, 4-(Azetidine-1-carbonyl)-2-methyl-2H-pyrazole-3-carboxylic acid [2-(3-chloro-phenyl)-imidazo[1,2-a]pyrimidin-7-yl]-amide], the IC50 is 4.8 nM.

For the compound `CCCn1ccc(CNC(=O)c2cnn(C)c2C(=O)Nc2ccn3cc(-c4ccccc4)nc3n2)n1` [Example 164, 1-methyl-N5-(2-phenylimidazo[1,2-a]pyrimidin-7-yl)-N4-((1-propyl-1H-pyrazol-3-yl)methyl)-1H-pyrazole-4,5-dicarboxamide], the IC50 was 725 nM.

In the case of `Cn1ncc(C(=O)NCc2ccc(C(F)(F)F)nc2)c1C(=O)Nc1ccn2cc(-c3ccccc3)nc2n1` [Example 144, 1-methyl-N5-(2-phenylimidazo[1,2-a]pyrimidin-7-yl)-N-4-((6-(trifluoromethyl)pyridin-3-yl)methyl)-1H-pyrazole-4,5-dicarboxamide], the IC50 was found to be 198 nM.

Turning to `Cn1ncc(C(=O)NCC(C)(C)O)c1C(=O)Nc1ccn2cc(-c3ccccc3)nc2n1` [Example 72, 2-Methyl-2H-pyrazole-3,4-dicarboxylic acid 4-[(2-hydroxy-2-methyl-propyl)-amide]3-[(2-phenyl-imidazo[1,2-a]pyrimidin-7-yl)-amide]], the IC50 turned out to be 463 nM.

Turning to `CCn1nc([N+](=O)[O-])cc1C(=O)Nc1ccn2cc(-c3ccccc3)nc2n1` [Example 15, 2-Ethyl-5-nitro-2H-pyrazole-3-carboxylic acid (2-phenyl-imidazo[1,2-a]pyrimidin-7-yl)-amide], the IC50 came to 748 nM.

As for `CN(CC#N)C(=O)c1cnn(C)c1C(=O)Nc1ccn2cc(-c3ccccc3)nc2n1` [Example 119, N4-(cyanomethyl)-N4,1-dimethyl-N5-(2-phenylimidazo[1,2-a]pyrimidin-7-yl)-1H-pyrazole-4,5-dicarboxamide], the IC50 was found to be 13.3 nM.

Turning to `Cc1cc(CNC(=O)c2cnn(C)c2C(=O)Nc2ccn3cc(-c4ccccc4)nc3n2)no1` [Example 143, 1-methyl-N-4-((5-methylisoxazol-3-yl)methyl)-N5-(2-phenylimidazo[1,2-a]pyrimidin-7-yl)-1H-pyrazole-4,5-dicarboxamide], the IC50 is 162 nM.

Consider `CC(=O)Oc1cccc(-c2cn3ccc(NC(=O)c4c(C(=O)N5CCC5)cnn4C)nc3n2)c1` [Example 105, 3-(7-(4-(azetidine-1-carbonyl)-1-methyl-1H-pyrazole-5-carboxamido)imidazo[1,2-a]pyrimidin-2-yl)phenyl acetate], for which the IC50 was determined as 36.6 nM.

Regarding `Cc1cc(Br)cnc1C(=O)Nc1ccn2cc(-c3ccccc3)nc2n1` [Example 23, 5-Bromo-3-methyl-pyridine-2-carboxylic acid (2-phenyl-imidazo[1,2-a]pyrimidin-7-yl)-amide], the IC50 was determined as 64.3 nM.

Turning to `Cn1ncc(C(=O)NCc2cn3ccccc3n2)c1C(=O)Nc1ccn2cc(-c3ccccc3)nc2n1` [Example 149, N4-(imidazo[1,2-a]pyridin-2-ylmethyl)-1-methyl-N5-(2-phenylimidazo[1,2-a]pyrimidin-7-yl)-1H-pyrazole-4,5-dicarboxamide], the IC50 is 260 nM.

With `CN(C)C(=O)c1cnn(C)c1C(=O)Nc1ccn2cc(-c3ccccc3)nc2n1` [Example 75, 2-Methyl-2H-pyrazole-3,4-dicarboxylic acid 4-dimethylamide 3-[(2-phenyl-imidazo[1,2-a]pyrimidin-7-yl)-amide]], the IC50 turned out to be 4.9 nM.

As for `Cn1ncc(C(=O)NCc2ccno2)c1C(=O)Nc1ccn2cc(-c3ccccc3)nc2n1` [Example 131, N4-(isoxazol-5-ylmethyl)-1-methyl-N5-(2-phenylimidazo[1,2-a]pyrimidin-7-yl)-1H-pyrazole-4,5-dicarboxamide], the IC50 was 35.1 nM.

Take `Cn1ncc(C(=O)NCCCO)c1C(=O)Nc1ccn2cc(-c3ccccc3)nc2n1` [Example 38]: the IC50 stood at 22.9 nM.

With `Cn1ncc(C(=O)N2CCC2)c1C(=O)Nc1ccn2cc(-c3cccc(Br)c3)nc2n1` [Example 117, 4-(azetidine-1-carbonyl)-N-(2-(3-bromophenyl)imidazo[1,2-a]pyrimidin-7-yl)-1-methyl-1H-pyrazole-5-carboxamide], the IC50 was 6.2 nM.

In the case of `CCn1ncc(C(=O)NC)c1C(=O)Nc1ccn2cc(-c3ccccc3)nc2n1` [Example 64, 2-Ethyl-2H-pyrazole-3,4-dicarboxylic acid 4-methylamide 3-[(2-phenyl-imidazo[1,2-a]pyrimidin-7-yl)-amide]], the 50% inhibitory concentration (IC50) is 6.5 nM.

On to `CCC(C)n1ncc(Cl)c1C(=O)Nc1ccn2cc(-c3ccccc3)nc2n1` (centres unmarked) [Example 11, 2-sec-Butyl-4-chloro-2H-pyrazole-3-carboxylic acid (2-phenyl-imidazo[1,2-a]pyrimidin-7-yl)-amide], for which the IC50 was 105 nM.

For `Cn1ncc(C(=O)N2CCC2)c1C(=O)Nc1ccn2cc(-c3cccc(OCF)c3)nc2n1` [Example 82, 4-(Azetidine-1-carbonyl)-N-(2-(3-(fluoromethoxy)phenyl)imidazo[1,2-a]pyrimidin-7-yl)-1-methyl-1H-pyrazole-5-carboxamide], the IC50 stood at 3.4 nM.
